Assay results taken from ChEMBL document CHEMBL5120979, “Oral Nonpeptidic, Noncovalent Triazine Coronavirus Main Protease Inhibitors for Treating COVID-19” (ACS Med Chem Lett, 2022).

What was measured:
[1] = system: SARS-CoV-2; assay: Antiviral activity against SARS-CoV-2 infected in African green monkey VeroE6 cells expressing TMPRSS2; format: functional, organism-based; settings: Severe acute respiratory syndrome coronavirus 2, Vero C1008
[2] = molecular target: Replicase polyprotein 1ab (Severe acute respiratory syndrome coronavirus 2, UniProt P0DTD1); assay: Inhibition of recombinant SARS-CoV-2 main protease usingDABCYLKTSAVLQSGFRKME(EDANS)-NH2 fluorogenic peptide substrate by FRET assay

SMILES	EC50 [1] [µM]	IC50 [2] [µM]
Cn1cnc(Cn2c(=O)nc(Nc3cc4cn(C)nc4cc3Cl)n(Cc3cc(F)c(F)c(F)c3)c2=O)c1	1.03	0.006
Cn1cnc(Cn2c(=O)nc(NC3=CC4CCOC4C=C3Cl)n(Cc3cc(F)c(F)c(F)c3)c2=O)n1 (stereo not given)	0.385	0.015
Cc1cncc(-n2c(=O)nc(Nc3cc4cn(C)nc4cc3Cl)n(Cc3cc(F)c(F)c(F)c3)c2=O)c1	0.177	
Cn1cc2cc(Nc3nc(=O)n(-c4cncc(C(F)(F)F)c4)c(=O)n3Cc3cc(F)c(F)c(F)c3)c(Cl)cc2n1	6.6	
Cn1cc2cc(Nc3nc(=O)n(Cc4cc(Cl)ccn4)c(=O)n3Cc3cc(F)c(F)cc3F)c(Cl)cc2n1	1.52	
Cn1cnc(Cn2c(=O)nc(Nc3cc4cn(C)nc4cc3Cl)n(Cc3cc(F)c(F)c(F)c3F)c2=O)n1	0.395	0.01
CCn1cc2cc(Nc3nc(=O)n(Cc4ncn(C)n4)c(=O)n3Cc3cc(F)c(F)cc3F)c(Cl)cc2n1	0.533	
Cc1cncc(-n2c(=O)nc(Nc3cc4cn(C)nc4cc3Cl)n(Cc3cc(C#N)c(F)cc3C)c2=O)c1	0.035	0.002
Cc1cncc(-n2c(=O)nc(Nc3cc4cn(C)nc4cc3Cl)n(Cc3cc(F)c(F)cc3F)c2=O)c1	0.131	
Cn1cc2cc(Nc3nc(=O)n(Cc4cc5ccsc5[nH]c4=O)c(=O)n3Cc3cc(F)c(F)c(F)c3)c(Cl)cc2n1	0.321	0.004
Cn1cc2cc(Nc3nc(=O)n(-c4cncc5c4COC5)c(=O)n3Cc3cc(Cl)c(F)cc3F)c(Cl)cc2n1	0.68	
Cn1cnc(Cn2c(=O)nc(Nc3cc4cn(CC(F)F)nc4cc3Cl)n(Cc3cc(F)c(F)cc3F)c2=O)n1	0.342	0.009
CCNC(=O)Cn1c(=O)nc(Nc2cc3cn(C)nc3cc2Cl)n(Cc2cc(F)c(F)c(F)c2)c1=O	11.5	
Cn1cnc(Cn2c(=O)nc(Nc3cc4cn(C)nc4cc3Cl)n(Cc3cccc4ccccc34)c2=O)n1	22.5	
Cn1cnc(Cn2c(=O)nc(Nc3cc4cn(C)nc4cc3Cl)n(Cc3cc(Cl)c(F)c(Cl)c3)c2=O)n1	0.75	0.005
Cn1cnc(Cn2c(=O)nc(Nc3cc4cn(C)nc4cc3Cl)n(Cc3cc(F)c(F)c(F)c3)c2=O)n1	0.45	
Cc1cnc(Cn2c(=O)nc(Nc3cc4cn(C)nc4cc3Cl)n(Cc3cc(F)c(F)cc3F)c2=O)nc1	5.85	
Cn1cnc(Cn2c(=O)nc(Nc3cc4c(F)n(C)nc4cc3Cl)n(Cc3cc(F)c(F)cc3F)c2=O)n1	0.75	
